Source: US20250304623A1, “PEPTIDES FOR INTRACELLULAR DELIVERY” (UNIVERSIDADE DE SANTIAGO DE COMPOSTELA, priority 2022, published 2025)
Starred links: 1 amine or outer side, 2 acyl side, 3 side chain; linkers in the order of their positions; H or OH if unused. Residues, ends and D or L forms follow the SMILES beside them. Groups on a side chain read outwards from the residue. *: point of attachment. Glutaryl = O=C(CCCC(=O)[*:2])[*:1]; NHNH2 = NN*

Columns and labels:
Assay type in all cases: cell-based
HCT116 cells = experiment: RLuc pDNA delivery, robotic library screening, HCT116
Hek293 cells = experiment: RLuc pDNA delivery, robotic library screening, Hek293
Hela cells = experiment: RLuc pDNA delivery, robotic library screening, HeLa
Experimental: Cells were seeded in a 96 well plate the day before the experiment at a concentration of 60,000 cell/mL (100 μL/w) in DMEM+10% FBS+1% Gln-Abt. For robotic library screening, the delivery of pDNA encoding for the expression of Renilla luciferase gene (RLuc, pRL-CMV (Promega, #E2261)) in six different cell lines was performed. […] The mixture was shaken for 30 min at room temperature before the addition to the cells. The cell medium was aspirated, and cells were washed twice with PBS. Finally, 50 μL of the complex's solution were added to the cells and incubated for 4 h. After the incubation, the medium was replaced by 100 μL of fresh DMEM supplemented with 10% FBS. 72 hours after transfection the DMEM was removed, cells were washed once with HBSS and 90 μL of HBSS were added to each well. Cells were incubated at 37° C. for 30 minutes. Then basal luminescence levels were read in a plate reader. Immediately, 10 μL of coelenterazine h in HBSS were added to each well (5 μM final concentration) and cells were incubated at 37° C. for 10 minutes. Finally, the total luminescence measurement of the plates was performed. Amphiphile transfection efficiency was compared and normalized to Lipofectamine® 2000 efficiency (value of 1 in Tables 1-5 and 7; bold numbers). All experiments were done in triplicate.
(§1) Tables 1-7: RLuc (pDNA) or EGFP (mRNA) expression levels were normalized to Lipofectamine reagents (value=1) and expressed as fold-times signal increase. In the case of siRNA, the siRNA treated cells fluorescence was compared with siMOCK control fluorescence, while Cas9-RNP mediated knockout was measured against the fluorescence of untreated cells. In both siRNA and Cas9-RNP, values are expressed as % fluorescence reduction. Amphiphile concentration was 5 μM in all cases. All experiments were performed in triplicate.
Tables 8-13 show the mean (triplicates) luminescent intensity (RLU) measured after the transfection of RLuc pDNA by different amphiphiles at different concentrations in a variety of cell lines. Background luminescence values, accounted by untransfected control cells, were subtracted for processing.

[1] = test system: HepG2 cells expressing EGFP; experiment: EGFP-targeting siRNA delivery (GFP silencing vs siMOCK), HepG2
Experimental: To generate an EGFP expressing HeLa cell line, HeLa cells were transfected with EGFP pDNA (pEGFP-C1, Clontech) and stable transfectants were selected with 400 μg/mL of G-418 (Millipore). Green clones were selected by epifluorescence microscopy and tested for EGFP expression stability through several passages. […] All other EGFP-expressing cell lines were obtained in a similar way from parent non-EGFP-expressing cell lines.
Cells expressing EGFP were seeded in a 96 well plate the day before the experiment at a concentration of 50,000 cell/mL (100 μL/w) in DMEM+10% FBS+1% Gln-Abt. For robotic library screening, the delivery of an EGFP-targeting siRNA (EGFP: enhanced green fluorescent protein, Ambion® Silencer® GFP Positive Control siRNA (siGFP) (AM4626)) in six different cell lines expressing EGFP was performed. […] The mixture was shaken for 30 min at room temperature (rt) before the addition to the cells. The cell medium was aspirated, and cells were washed twice with PBS. Finally, 50 μL of the solution of siRNA/amphiphile complexes were added to the cells and incubated for 4 h. After transfection, the medium was replaced by 100 μL of fresh DMEM supplemented with 10% FBS. The fluorescence knockdown was quantified after 72 h in a plate reader, by comparison with cells transfected with a non-targeting siRNA control (siMOCK, Silencer™ Negative Control No. 1 siRNA (siMOCK) (AM4611)). EGFP knockdown was compared with Lipofectamine® RNAiMAX silencing efficiency (30-60% depending on cell line, defined with a numeric value in the below tables). All experiments were done in triplicate.
as §1
Tables 20-25 show the mean (triplicates) percentage of GFP-silencing, accounted by fluorescence intensity decrease relative to a non-targeting siRNA (siMOCK) control, measured after the transfection of siRNA by different amphiphiles at different concentrations in a variety of cell lines. Background values, accounted by untreated control cells, were subtracted for processing.

CC(=O)N[C@@H](CCCNC(=N)N)C(=O)N[C@@H](CCCCNC(=O)CCCC(=O)NN)C(=O)N[C@@H](Cc1c[nH]cn1)C(=O)N[C@@H](CCCNC(=N)N)C(=O)N[C@@H](CCCCNC(=O)CCCC(=O)NN)C(=O)N[C@@H](CCCCNC(=O)CCCC(=O)NN)C(=O)N[C@@H](Cc1c[nH]cn1)C(N)=O [7.3(L-H), Ac-RK*HRK*K*H-NH2] (Ac-RK([Glutaryl-NHNH2])HRK([Glutaryl-NHNH2])K([Glutaryl-NHNH2])H-NH2)
mean luminescent intensity (RLuc pDNA) (HCT116 cells; Myristoleyl, 5 μM): 193237 RLU | mean luminescent intensity (RLuc pDNA) (HCT116 cells; Myristoleyl, 10 μM): 172603 RLU | mean luminescent intensity (RLuc pDNA) (HCT116 cells; Myristoleyl, 15 μM): 42433 RLU | mean luminescent intensity (RLuc pDNA) (HCT116 cells; Palmitoleyl, 5 μM): 294813 RLU | mean luminescent intensity (RLuc pDNA) (HCT116 cells; Palmitoleyl, 10 μM): 248907 RLU | mean luminescent intensity (RLuc pDNA) (HCT116 cells; Palmitoleyl, 15 μM): 89543 RLU | mean luminescent intensity (RLuc pDNA) (HCT116 cells; Petroselinyl, 5 μM): 147949 RLU | mean luminescent intensity (RLuc pDNA) (HCT116 cells; Petroselinyl, 10 μM): 114522 RLU | mean luminescent intensity (RLuc pDNA) (HCT116 cells; Petroselinyl, 15 μM): 48178 RLU | pDNA delivery, times better than Lipofectamine 2000 (HCT116 cells; palmitoleyl aldehyde): up to 10 times | mean luminescent intensity (RLuc pDNA) (Hek293 cells; Myristoleyl, 5 μM): 330418 RLU | mean luminescent intensity (RLuc pDNA) (Hek293 cells; Myristoleyl, 10 μM): 145597 RLU | mean luminescent intensity (RLuc pDNA) (Hek293 cells; Myristoleyl, 15 μM): 36468 RLU | mean luminescent intensity (RLuc pDNA) (Hek293 cells; Palmitoleyl, 5 μM): 294438 RLU | mean luminescent intensity (RLuc pDNA) (Hek293 cells; Palmitoleyl, 10 μM): 191190 RLU | mean luminescent intensity (RLuc pDNA) (Hek293 cells; Palmitoleyl, 15 μM): 87323 RLU | mean luminescent intensity (RLuc pDNA) (Hek293 cells; Petroselinyl, 5 μM): 286371 RLU | mean luminescent intensity (RLuc pDNA) (Hek293 cells; Petroselinyl, 10 μM): 237379 RLU | mean luminescent intensity (RLuc pDNA) (Hek293 cells; Petroselinyl, 15 μM): 157061 RLU | mean luminescent intensity (RLuc pDNA) (Hela cells; HeLa, Petroselinyl, 10 μM): 107063 RLU | mean luminescent intensity (RLuc pDNA) (Hela cells; Hela, Myristoleyl, 5 μM): 122581 RLU | mean luminescent intensity (RLuc pDNA) (Hela cells; Hela, Myristoleyl, 10 μM): 115599 RLU | mean luminescent intensity (RLuc pDNA) (Hela cells; Hela, Myristoleyl, 15 μM): 25022 RLU | mean luminescent intensity (RLuc pDNA) (Hela cells; Hela, Palmitoleyl, 5 μM): 226412 RLU | mean luminescent intensity (RLuc pDNA) (Hela cells; Hela, Palmitoleyl, 10 μM): 180751 RLU | mean luminescent intensity (RLuc pDNA) (Hela cells; Hela, Palmitoleyl, 15 μM): 31589 RLU | mean luminescent intensity (RLuc pDNA) (Hela cells; Hela, Petroselinyl, 5 μM): 282134 RLU | mean luminescent intensity (RLuc pDNA) (Hela cells; Hela, Petroselinyl, 15 μM): 13233 RLU | percentage of GFP-silencing relative to siMOCK ([1]; Myristoleyl, 15 μM): −13% | percentage of GFP-silencing relative to siMOCK ([1]; Oleyl, 10 μM): −9% | percentage of GFP-silencing relative to siMOCK ([1]; Palmitoleyl, 15 μM): 10% | percentage of GFP-silencing relative to siMOCK ([1]; Petroselinyl, 15 μM): 1%

Ac-RHLK*RHK*RRLK*RH-NH2 (Ac-RHLKRHKRRLKRH-NH2; not fully specified (residues 4, 7, 11); printed as Ac-RHLK*RHK*RRLK*RH-NH2; also: linker on K* not given here) [13(3His)]
mean luminescent intensity (RLuc pDNA) (HCT116 cells; Dodecanal, 5 μM): 22167 RLU | mean luminescent intensity (RLuc pDNA) (HCT116 cells; Dodecanal, 10 μM): 7176 RLU | mean luminescent intensity (RLuc pDNA) (HCT116 cells; Myristoleyl, 5 μM): 94125 RLU | mean luminescent intensity (RLuc pDNA) (HCT116 cells; Myristoleyl, 15 μM): 738 RLU | mean luminescent intensity (RLuc pDNA) (HCT116 cells; Palmitoleyl, 5 μM): 109244 RLU | mean luminescent intensity (RLuc pDNA) (HCT116 cells; Petroselinyl, 5 μM): 19145 RLU | mean luminescent intensity (RLuc pDNA) (HCT116 cells; Petroselinyl, 10 μM): 45000 RLU | mean luminescent intensity (RLuc pDNA) (HCT116 cells; Petroselinyl, 15 μM): 8961 RLU | mean luminescent intensity (RLuc pDNA) (Hek293 cells; Oleyl, 5 μM): 294438 RLU | mean luminescent intensity (RLuc pDNA) (Hek293 cells; Oleyl, 10 μM): 191190 RLU | mean luminescent intensity (RLuc pDNA) (Hek293 cells; Oleyl, 15 μM): 87323 RLU | mean luminescent intensity (RLuc pDNA) (Hek293 cells; Palmitoleyl, 5 μM): 46216 RLU | mean luminescent intensity (RLuc pDNA) (Hek293 cells; Palmitoleyl, 10 μM): 51837 RLU | mean luminescent intensity (RLuc pDNA) (Hek293 cells; Palmitoleyl, 15 μM): 10351 RLU | mean luminescent intensity (RLuc pDNA) (Hek293 cells; Petroselinyl, 5 μM): 330418 RLU | mean luminescent intensity (RLuc pDNA) (Hek293 cells; Petroselinyl, 10 μM): 145597 RLU | mean luminescent intensity (RLuc pDNA) (Hek293 cells; Petroselinyl, 15 μM): 36468 RLU | mean luminescent intensity (RLuc pDNA) (Hela cells; HeLa, Oleyl, 5 μM): 226412 RLU | mean luminescent intensity (RLuc pDNA) (Hela cells; HeLa, Petroselinyl, 10 μM): 115599 RLU | mean luminescent intensity (RLuc pDNA) (Hela cells; Hela, Myristoleyl, 5 μM): −294 RLU | mean luminescent intensity (RLuc pDNA) (Hela cells; Hela, Myristoleyl, 10 μM): −246 RLU | mean luminescent intensity (RLuc pDNA) (Hela cells; Hela, Myristoleyl, 15 μM): −405 RLU | mean luminescent intensity (RLuc pDNA) (Hela cells; Hela, Oleyl, 10 μM): 180751 RLU | mean luminescent intensity (RLuc pDNA) (Hela cells; Hela, Oleyl, 15 μM): 31589 RLU | mean luminescent intensity (RLuc pDNA) (Hela cells; Hela, Palmitoleyl, 5 μM): 8590 RLU | mean luminescent intensity (RLuc pDNA) (Hela cells; Hela, Petroselinyl, 5 μM): 122581 RLU | mean luminescent intensity (RLuc pDNA) (Hela cells; Hela, Petroselinyl, 15 μM): 25022 RLU | percentage of GFP-silencing relative to siMOCK ([1]; Myristoleyl, 10 μM): 8% | percentage of GFP-silencing relative to siMOCK ([1]; Palmitoleyl, 10 μM): 6% | percentage of GFP-silencing relative to siMOCK ([1]; Petroselinyl, 5 μM): −1% | percentage of GFP-silencing relative to siMOCK ([1]; Petroselinyl, 10 μM): 19%

Ac-RRLK*RLLRRLK*RL-NH2 (Ac-RRLK(NHNH2)RLLRRLK(NHNH2)RL-NH2; not fully specified; printed as Ac-RRLK*RLLRRLK*RL-NH2; also: K*4,K*11: native or modified lysine (ε-amide to a linker)) [Peptide 13.2]
mean luminescent intensity (RLuc pDNA) (HCT116 cells; Oleyl, 5 μM): 15723 RLU | mean luminescent intensity (RLuc pDNA) (HCT116 cells; Oleyl, 10 μM): 2338 RLU | mean luminescent intensity (RLuc pDNA) (HCT116 cells; Oleyl, 15 μM): 1593 RLU | mean luminescent intensity (RLuc pDNA) (Hek293 cells; Oleyl, 5 μM): 83689 RLU | mean luminescent intensity (RLuc pDNA) (Hek293 cells; Oleyl, 10 μM): 22447 RLU | mean luminescent intensity (RLuc pDNA) (Hek293 cells; Oleyl, 15 μM): 7233 RLU | percentage of GFP-silencing relative to siMOCK ([1]; Dodecanal, 10 μM): 13% | percentage of GFP-silencing relative to siMOCK ([1]; Dodecanal, 15 μM): −5% | percentage of GFP-silencing relative to siMOCK ([1]; Palmitoleyl, 5 μM): 16% | percentage of GFP-silencing relative to siMOCK ([1]; Palmitoleyl, 10 μM): 4% | percentage of GFP-silencing relative to siMOCK ([1]; Palmitoleyl, 15 μM): 7% | percentage of GFP-silencing relative to siMOCK ([1]; Petroselinyl, 5 μM): −11% | percentage of GFP-silencing relative to siMOCK ([1]; Petroselinyl, 10 μM): 2% | percentage of GFP-silencing relative to siMOCK ([1]; Petroselinyl, 15 μM): 0%
